Like-named read-outs stand apart in the source and are kept apart here.
How the values were obtained:
Type in all cases: cell-based
168 GPCRs [1] = target: T1, 168 GPCRs (Homo sapiens, UniProt P08173)
T1 construct: host or cells: PathHunter cell lines
T1 sequence (P08173 1-479): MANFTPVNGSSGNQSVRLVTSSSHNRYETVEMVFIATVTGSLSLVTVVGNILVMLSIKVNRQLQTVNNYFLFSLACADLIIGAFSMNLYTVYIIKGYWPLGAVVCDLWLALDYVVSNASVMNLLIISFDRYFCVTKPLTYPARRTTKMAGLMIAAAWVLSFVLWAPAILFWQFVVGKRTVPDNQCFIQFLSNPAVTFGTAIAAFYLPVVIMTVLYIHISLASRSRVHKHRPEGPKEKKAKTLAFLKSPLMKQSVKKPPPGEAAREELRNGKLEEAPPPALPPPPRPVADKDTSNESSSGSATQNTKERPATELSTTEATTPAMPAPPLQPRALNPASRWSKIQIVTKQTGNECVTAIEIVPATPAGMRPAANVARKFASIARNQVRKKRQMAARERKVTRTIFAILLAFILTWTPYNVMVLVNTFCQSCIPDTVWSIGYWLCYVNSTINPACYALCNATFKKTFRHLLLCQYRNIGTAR

168 GPCRs [2] = target: T2, 168 GPCRs (Homo sapiens, UniProt P08908); settings: HTR1A
T2 construct: host or cells: PathHunter cell lines
T2 sequence (P08908 1-422): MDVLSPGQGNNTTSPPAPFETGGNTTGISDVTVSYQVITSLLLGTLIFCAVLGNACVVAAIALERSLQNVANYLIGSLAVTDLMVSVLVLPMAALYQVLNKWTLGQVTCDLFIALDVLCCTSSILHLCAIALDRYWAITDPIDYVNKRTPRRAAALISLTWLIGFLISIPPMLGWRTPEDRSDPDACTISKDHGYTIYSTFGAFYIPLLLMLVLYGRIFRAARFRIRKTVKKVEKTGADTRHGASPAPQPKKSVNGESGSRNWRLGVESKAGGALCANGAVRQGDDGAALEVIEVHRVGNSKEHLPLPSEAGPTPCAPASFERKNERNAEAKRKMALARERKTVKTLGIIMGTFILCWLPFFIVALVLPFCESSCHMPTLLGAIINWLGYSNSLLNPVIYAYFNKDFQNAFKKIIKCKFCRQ

168 GPCRs [3] = target: T3, 168 GPCRs (Homo sapiens, UniProt P37288); settings: AVPR1a
T3 construct: host or cells: PathHunter cell lines
T3 sequence (P37288 whole entry): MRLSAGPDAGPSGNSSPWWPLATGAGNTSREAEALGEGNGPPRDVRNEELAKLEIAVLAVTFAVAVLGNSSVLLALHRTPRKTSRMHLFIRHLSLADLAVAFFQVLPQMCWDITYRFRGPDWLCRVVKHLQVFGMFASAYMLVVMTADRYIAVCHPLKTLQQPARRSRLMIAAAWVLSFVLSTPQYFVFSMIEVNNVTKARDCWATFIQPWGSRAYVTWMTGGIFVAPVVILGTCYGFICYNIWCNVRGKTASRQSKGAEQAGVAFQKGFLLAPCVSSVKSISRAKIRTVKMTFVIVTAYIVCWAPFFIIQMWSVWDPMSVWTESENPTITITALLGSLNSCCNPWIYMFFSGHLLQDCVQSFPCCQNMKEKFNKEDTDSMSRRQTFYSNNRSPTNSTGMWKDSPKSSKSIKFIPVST

168 GPCRs [4] = target: T4, 168 GPCRs (Homo sapiens, UniProt Q03431); settings: PTHR1
T4 construct: host or cells: PathHunter cell lines
T4 sequence (Q03431 27-593): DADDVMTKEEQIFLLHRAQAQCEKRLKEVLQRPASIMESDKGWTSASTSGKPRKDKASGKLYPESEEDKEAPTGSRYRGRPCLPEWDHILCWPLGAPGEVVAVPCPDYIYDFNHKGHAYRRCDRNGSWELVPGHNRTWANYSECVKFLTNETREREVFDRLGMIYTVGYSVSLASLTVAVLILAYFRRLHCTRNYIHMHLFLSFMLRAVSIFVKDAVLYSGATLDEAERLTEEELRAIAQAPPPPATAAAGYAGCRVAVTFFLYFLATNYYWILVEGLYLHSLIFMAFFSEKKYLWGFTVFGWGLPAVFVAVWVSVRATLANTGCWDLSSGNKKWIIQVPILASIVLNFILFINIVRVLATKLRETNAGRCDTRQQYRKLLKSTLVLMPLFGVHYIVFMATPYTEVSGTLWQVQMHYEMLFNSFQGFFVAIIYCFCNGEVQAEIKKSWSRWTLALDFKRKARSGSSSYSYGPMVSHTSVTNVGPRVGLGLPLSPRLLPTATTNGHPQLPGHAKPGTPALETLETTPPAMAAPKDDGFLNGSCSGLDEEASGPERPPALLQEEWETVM

168 GPCRs [5] = target: T5, 168 GPCRs (Homo sapiens, UniProt Q5NUL3)
T5 construct: host or cells: PathHunter cell lines
T5 sequence (Q5NUL3 1-361): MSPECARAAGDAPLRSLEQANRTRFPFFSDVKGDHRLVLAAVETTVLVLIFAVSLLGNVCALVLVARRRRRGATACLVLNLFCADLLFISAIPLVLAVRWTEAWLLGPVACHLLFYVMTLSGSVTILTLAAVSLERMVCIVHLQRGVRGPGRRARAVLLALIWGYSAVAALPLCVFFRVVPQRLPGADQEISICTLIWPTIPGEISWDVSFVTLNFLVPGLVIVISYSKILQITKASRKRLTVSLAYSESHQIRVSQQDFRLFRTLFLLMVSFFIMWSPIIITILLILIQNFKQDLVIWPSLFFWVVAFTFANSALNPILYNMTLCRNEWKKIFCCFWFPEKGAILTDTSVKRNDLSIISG

| SMILES | % Agonist Activity (168 GPCRs [1]; CHRM4, 1 uM) | % Antagonist Activity (168 GPCRs [1]; CHRM4, 1 uM) | % Agonist Activity (168 GPCRs [1]; CHRM4, 10 uM) | % Antagonist Activity (168 GPCRs [1]; CHRM4, 10 uM) | % Agonist Activity (168 GPCRs [2]; 1 uM) | % Antagonist Activity (168 GPCRs [2]; 1 uM) | % Agonist Activity (168 GPCRs [2]; 10 uM) | % Antagonist Activity (168 GPCRs [2]; 10 uM) | % Agonist Activity (168 GPCRs [3]; 1 uM) | % Antagonist Activity (168 GPCRs [3]; 1 uM) | % Agonist Activity (168 GPCRs [3]; 10 uM) | % Antagonist Activity (168 GPCRs [3]; 10 uM) | % Agonist Activity (168 GPCRs [4]; Conc 1 uM) | % Antagonist Activity (168 GPCRs [4]; Conc 1 uM) | % Agonist Activity (168 GPCRs [4]; Conc 10 uM) | % Antagonist Activity (168 GPCRs [4]; Conc 10 uM) | % Agonist Activity (168 GPCRs [5]; GPR120, 1 uM) | % Antagonist Activity (168 GPCRs [5]; GPR120, 1 uM) | % Agonist Activity (168 GPCRs [5]; GPR120, 10 uM) | % Antagonist Activity (168 GPCRs [5]; GPR120, 10 uM) |
| --- | --- | --- | --- | --- | --- | --- | --- | --- | --- | --- | --- | --- | --- | --- | --- | --- | --- | --- | --- | --- |
| CNC(C)Cc1ccc2c(c1)OCO2 (stereo not shown) [MDMA, 3,4-Methylenedioxy methamphetamine, reference compound] | -1.8% | 32.8% | -3.2% | 26.3% | 1.1% | -5.1% | 2.4% | -0.9% | -0.2% | -3.6% | -0.4% | 4.5% | 0% | -2.1% | 0.1% | 7.7% | -3.7% | 11.3% | -4.4% | 8.8% |
| CNC(C)C(=O)c1ccc2c(c1)OCO2 (stereo not shown) [methylone] | -5.8% | 10.2% | -6.2% | 6.7% | 0.8% | -5.2% | -0.1% | -6.4% | -0.6% | -3% | -0.5% | 2.8% | 0% | 2.2% | 0.1% | -8.3% | -5.1% | 46.5% | -5.8% | 40.3% |

From publication PMC10882719 (Frontiers in Neuroscience, 2024)
